Data reported in article PMC8750965, “The Isoquinoline-Sulfonamide Compound H-1337 Attenuates SU5416/Hypoxia-Induced Pulmonary Arterial Hypertension in Rats” (Cells, 2021).

Assays:
[1] = test system: phosphorylated MYPT1 in hPASMCs; experiment: Western blot of MYPT1 phosphorylation (Thr696) in ET-1-stimulated hPASMCs; format: cell-based, human; conditions: compound 1 hour, then ET-1 0.1 µM 1 hour, ET-1 did not increase p-MYPT1
[2] = test system: phosphorylation of MLC in hPASMCs; experiment: Western blot of MLC phosphorylation in ET-1-stimulated hPASMCs; conditions: then ET-1 0.1 µM 1 h
Procedure: Before stimulation, 2 × 10^5 hPASMCs were cultured with serum-starved medium (Humedia-SB containing 1% FBS and antibiotics [Kurabo]), followed by stimulation with serum-starved medium containing 0.1 µM ET-1 or 10 ng/mL recombinant PDGF and treatment with different reagents. The isolated proteins were separated and analyzed by western blotting.
proteins were then isolated with RIPA buffer (25 mM Tris-HCl [pH 7.6], 150 mM NaCl,
1% NP-40, 1% sodium deoxycholate, and 0.1% sodium dodecyl sulfate) containing prote-
ase inhibitors (Protease Inhibitor Cocktail; Nacalai Tesque, Kyoto, Japan) and phosphatase
inhibitors (PhosSTOP; Roche, Basel, Switzerland). Proteins from each sample were sepa-
rated by sodium dodecyl sulfate polyacrylamide gel electrophoresis and transferred onto
polyvinylidene difluoride (PVDF) membranes. The membranes were then blocked with
5% bovine serum albumin diluted in Tris-buffered solution containing 0.05% Tween 20
(TBS-T) for 1 hour at room temperature. The blocked membranes were incubated with
primary antibodies at 4°C overnight, followed by washing with TBS-T. The membranes
were then incubated with a secondary antibody for 1 h at room temperature. Bands were
visualized by a chemiluminescence reaction using Pierce ECL Western Blotting (Thermo
Fisher Scientific, Waltham, MA, CSA) and LAS-4000 (Fuji Film, Tokyo, Japan).
tein expression was normalized to that of -actin.

[3] = test system: phosphorylation of mTOR in hPASMCs; experiment: Western blot of mTOR phosphorylation in PDGF-stimulated hPASMCs; conditions: concentration not given, 1 h, then PDGF 10 ng/mL 1 h
hPASMCs = experiment: Cell proliferation assay (Cell Counting Kit-8) of PDGF-stimulated hPASMCs; conditions: 0.1–10 µM compound, PDGF 10 ng/mL, 72 h
Procedure: Human pulmonary artery SMCs (hPASMCs) were cultured in Humedia-SG2 (Kurabo, Osaka, Japan) until stimulation and were plated in 96-well plates at 2.5 × 10^3 cells/well in serum-starved medium (Humedia-SB supplemented with 1% fetal bovine serum [FBS] and antibiotics [Kurabo]). […] The proliferation of hPASMCs was evaluated using a Cell Counting Kit-8 (Dojindo Laboratories, Kumamoto, Japan).
hPASMCs were purchased from Kurabo (Osaka, Japan). The cells were cultured in
6-cm Petri dishes coated with fibronectin (Corning, Corning, NY, USA) and Humedia-
SG2 (Kurabo) at 37 °C and 5% CO2 in a humidified air incubator until the other assays
2.4. Cell Proliferation Analysis
hPASMCs were cultured in Humedia-SG2 (Kurabo) until stimulation and were
plated in 96-well plates at 2.5 × 10^3 cells/well in serum-starved medium (Humedia-SB sup-
plemented with 1% FBS and antibiotics [Kurabo]). Then, hPASMCs were incubated with
The proliferation of hPASMCs was evaluated using Cell Counting
Kit-8 assays (Dojindo Laboratories, Kumamoto, Japan) according to the manufacturer’s

| Structure (SMILES) | Ratio of p-MYPT1 (Thr696) to total MYPT1, difference versus ET-1 without compound [1] | Phosphorylation of MLC (p-MLC/total MLC) ([2]; concentration not given, 1 h) | Phosphorylation of MLC (p-MLC/total MLC) ([2]; 10 μM compound 1 h) | Phosphorylation of mTOR (phospho-/total mTOR) [3] | Proliferation of hPASMCs induced by PDGF (hPASMCs) |
| --- | --- | --- | --- | --- | --- |
| COc1ccccc1Oc1c(NS(=O)(=O)c2ccc(C(C)(C)C)cc2)nc(-c2ncccn2)nc1OCCO [Bosentan] | insignificant | the difference did not reach significant levels |  |  |  |
| O=S(=O)(c1cccc2cnccc12)N1CCCNCC1 [Fasudil] |  |  | significantly decreased | did not have a suppressive effect | observed only at the highest concentration |
| O=c1cc(N2CCOCC2)oc2c(-c3ccccc3)cccc12 [LY294002] |  |  |  | significantly reduced | suppressed the proliferation of hPASMCs induced by stimulation with PDGF in a concentration-dependent manner |
